The values that follow come from patent publication US20120122870A1, “Treatment Of Ischemia-Reperfusion Injury” (MUSC FOUNDATION FOR RESEARCH DEVELOPMENT, priority 2009, published 2012).

One test relates to TNFα mRNA. Description: TNFα mRNA by quantitative real time PCR after hepatic warm IR. The class given is in vivo, mice. As to the method: ABC294640 prevents hepatic warm IR-induced tumor necrosis factor-α (TNFα) formation and NF-κB activation. Toxic cytokine formation and inflammatory processes play important roles in IR injury, and S1P is well known to promote inflammation. Accordingly, we investigated whether ABC294640 affects the expression of the pro-inflammatory cytokine TNFα after IR. Livers were harvested at 2 h after reperfusion and TNFα mRNA was detected by quantitative real time PCR. TNFα mRNA increased ˜10-fold after IR (FIG. 15, upper). ABC294640 blunted this increase in TNFα mRNA by ˜50%. NF-κB activation is involved in inflammatory cytokine formation and upregulation of adhesion molecules. After IR, phosphorylation of p65 subunit of NF-κB increased markedly, indicating NF-κB activation. This effect was also blunted by ABC294640 (FIG. 15 lower) which is consistent with our previous studies of NF-κB activation. Quantitative real-time PCR (qPCR): Total RNA in liver homogenates was isolated using a QIAGEN RNeasy kit and quantified using a NanoDrop ND-1000 Spectrophotometer. cDNAs of mRNA of interest were generated using the Bio-Rad iScript cDNA Synthesis kit. qPCR was performed on a BioRAD MyiQ single-color real-time PCR detection system. The primers used for each gene were designed using Primer 3 software. […] Data were analyzed with MyiQ software. […]

The subject of test [1] is non-heart-beating liver transplantation in Lewis rats. Description: Non-heart-beating donor liver transplantation, graft necrosis (H+E). The class given is in vivo. To be noted: 30-min aorta clamping, 4-hour cold storage; grafts harvested 18 h after implantation. An excerpt:
ABC294640 improves the outcome of non-heart-beating liver transplantation. The severe donor organ shortage could be reduced by the use of marginal livers for transplantation. Currently only livers from brain-dead, heart-beating donors (HBD) are used for transplantation since liver grafts from non-heart-beating donors frequently fail after transplantation. Development of a method to improve survival of grafts from NHBD is critical to expand the usable liver donor pool. Grafts from NHBD experience longer warm ischemia before liver retrieval, which likely upregulates SK to a higher extent compared to those from HBD. Therefore, we performed a pilot study to test if ABC294640 improves the outcome of non-heart-beating liver transplantation. Livers were explanted from Lewis rats after 30-min of aorta clamping to mimic non-heart-beating donation and implanted after 4-hour storage in UW solution at 0-1° C. […] In cold-stored, untransplanted livers from NHBD, although some cell swelling was observed, no necrosis occurred (FIG. 19, upper right). After transplantation of livers from HBD, small focal necrosis occurred (FIG. 19, middle left). […] Necrotic areas in sections were quantified by image analysis using an Image-1/AT image acquisition and analysis system (Universal Imaging Corp., West Chester, Pa.) incorporating an Axioskop 50 microscope (Carl Zeiss, Inc., Thornwood, NY) and a 10× objective lens.

Test [2] has as its system phosphorylated p65 subunit of NF-κB. Nature of the test: Phosphorylated p65 NF-κB immunoblot after hepatic warm IR. The class given is in vivo, mice. To be noted: livers harvested 2 h after IR. As to the method: ABC294640 prevents hepatic warm IR-induced tumor necrosis factor-α (TNFα) formation and NF-κB activation. Toxic cytokine formation and inflammatory processes play important roles in IR injury, and S1P is well known to promote inflammation. Accordingly, we investigated whether ABC294640 affects the expression of the pro-inflammatory cytokine TNFα after IR. Livers were harvested at 2 h after reperfusion and TNFα mRNA was detected by quantitative real time PCR. TNFα mRNA increased ˜10-fold after IR (FIG. 15, upper). ABC294640 blunted this increase in TNFα mRNA by ˜50%. NF-κB activation is involved in inflammatory cytokine formation and upregulation of adhesion molecules. After IR, phosphorylation of p65 subunit of NF-κB increased markedly, indicating NF-κB activation. This effect was also blunted by ABC294640 (FIG. 15 lower) which is consistent with our previous studies of NF-κB activation. Western blotting: Briefly, liver tissue was homogenized in a 0.1% Triton-X100 buffer containing a protease inhibitor cocktail, and the extract was centrifuged at 12,000×g for 10 min at 4° C. […] Expression of the protein of interest was quantified by the density of Western blot images by densitometry and standardized by house keeping gene actin.

“Also recorded” adds a separate entry of the source.

Consider `O=C(NCc1ccncc1)C12CC3CC(C1)CC(c1ccc(Cl)cc1)(C3)C2` [ABC294640, 3-(4-chlorophenyl)-N-(pyridin-4-ylmethyl)adamantane-1-carboxamide], for which the “TNFα formation after hepatic IR (in words)” value with TNFα mRNA (livers harvested 2 h after IR) was “blunts TNFα formation”. Also, the “blunting of the increase in TNFα mRNA” value with TNFα mRNA (livers harvested 2 h after reperfusion) is roughly 50%. Besides, in test [1], the “necrotic areas in transplanted livers from non-heart-beating donors” value is listed as “substantially decreased; also recorded: attenuates necrosis”. Moreover, in test [2], the “phosphorylation of p65 subunit of NF-κB (NF-κB activation)” value was “blunts”.
